From PubChem BioAssay (NCI)
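Compound exposure: 48 hours, 5 concentrations, 96-well plates. TGI: concentration producing complete growth inhibition.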

Tests used:
Test in all cases: DTP human tumour cell line panel, 48 h
[1] = system: HT29 colon
[2] = system: SF-295 CNS
[3] = system: RXF 393 renal
[4] = system: SR leukemia
[5] = system: SNB-78 CNS
[6] = system: OVCAR-5 ovarian
[7] = system: OVCAR-4 ovarian
[8] = system: OVCAR-3 ovarian
[9] = system: HCT-15 colon
[10] = system: LXFL 529 NSCLC
[11] = system: CAKI-1 renal
[12] = system: SK-OV-3 ovarian
[13] = system: SF-539 CNS
[14] = system: SF-268 CNS
[15] = system: UACC-62 melanoma
[16] = system: NCI-H226 lung
[17] = system: OVCAR-8 ovarian
[18] = system: HCT-116 colon
[19] = system: U251 CNS
[20] = system: M14 melanoma
[21] = system: SK-MEL-28 melanoma
[22] = system: SNB-19 CNS
[23] = system: LOX IMVI melanoma
[24] = system: XF 498 CNS
[25] = system: TK-10 renal
[26] = system: UACC-257 melanoma
[27] = system: SW-620 colon
[28] = system: HL-60(TB) leukemia
[29] = system: MOLT-4 leukemia
[30] = system: KM12 colon
[31] = system: EKVX NSCLC
[32] = system: UO-31 renal
[33] = system: KM20L2 colon
[34] = system: ACHN renal
[35] = system: HOP-92 NSCLC
[36] = system: A549 NSCLC
[37] = system: IGROV1 ovarian
[38] = system: SN12C renal
[39] = system: DLD-1 colon
[40] = system: COLO 205 colon
[41] = system: HOP-62 NSCLC
[42] = system: HOP-18 NSCLC
[43] = system: MALME-3M melanoma
[44] = system: SK-MEL-5 melanoma
[45] = system: NCI-H460 lung
[46] = system: M19-MEL melanoma
[47] = system: SK-MEL-2 melanoma
[48] = system: SNB-75 CNS
[49] = system: 786-0 renal
[50] = system: NCI-H23 lung
[51] = system: RPMI-8226 leukemia
[52] = system: A498 renal
[53] = system: DMS 273 small cell lung
[54] = system: CCRF-CEM leukemia
[55] = system: NCI-H522 lung
[56] = system: K-562 leukemia
[57] = system: RXF-631 renal

Measured: TGI

O=[N+]([O-])c1ccc(C2N3CCCCC3[C@H]3CCCCN23)cc1 (some centres not stated)
> 100 µM: all assays above
